Results published in ChEMBL document CHEMBL1201862, “PubChem BioAssay data set” (2004).
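In this assay, cells in 96-well plates receive the compound at five concentrations for 48 hours. Endpoints are linearly interpolated between the surrounding concentrations. At the GI50, growth is halved.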 Active and inactive are the calls of the source. Cut-off read from the data, not from the text of the source: active = GI50 up to about 1.1 µM and inactive = higher.

Key:
Experiment in all cases: NCI tumour cell line growth inhibition, 48 h
786-0 = system: 786-0
CCRF-CEM = system: CCRF-CEM
HCT-15 = system: HCT-15
HT-29 = system: HT-29
Hs-578T = system: Hs-578T
MDA-MB-231 = system: MDA-MB-231
NCI-H23 = system: NCI-H23
NCI/ADR-RES = system: NCI/ADR-RES
OVCAR-4 = system: OVCAR-4
RPMI-8226 = system: RPMI-8226
SF-268 = system: SF-268
SK-MEL-5 = system: SK-MEL-5
SK-OV-3 = system: SK-OV-3
SN12C = system: SN12C
SNB-19 = system: SNB-19
U-251 = system: U-251
UACC-62 = system: UACC-62
A549 = system: A549
HOP-92 = system: HOP-92
COLO 205 = system: COLO 205

Row | SMILES | GI50 (786-0) | GI50 (CCRF-CEM) | GI50 (HCT-15) | GI50 (HT-29) | GI50 (Hs-578T) | GI50 (MDA-MB-231) | GI50 (NCI-H23) | GI50 (NCI/ADR-RES) | GI50 (OVCAR-4) | GI50 (RPMI-8226) | GI50 (SF-268) | GI50 (SK-MEL-5) | GI50 (SK-OV-3) | GI50 (SN12C) | GI50 (SNB-19) | GI50 (U-251) | GI50 (UACC-62) | GI50 (A549) | GI50 (HOP-92) | GI50 (COLO 205)
1 | CC1=C(N2CC2)C(=O)C(CO)=C(N2CC2)C1=O | < 0.0321 µM (active) | < 0.01 µM (active) | 0.0151 µM | 0.0132 µM (active) | 0.234 µM (active) | 0.173 µM (active) | 0.0169 µM (active) | 0.0106 µM (active) | 0.103 µM (active) | < 0.0142 µM (active) | 0.0129 µM (active) | 0.0279 µM (active) | 0.0516 µM (active) | < 0.0102 µM (active) | 0.0927 µM (active) | 0.0141 µM (active) | 0.022 µM (active) | – | – | –
2 | Cc1cc(Cl)nc(NC(=O)CSc2ccc(Cl)cc2)n1 | > 100 µM (inactive) | > 100 µM (inactive) | > 100 µM | > 100 µM (inactive) | 77.6 µM (inactive) | > 100 µM (inactive) | > 100 µM (inactive) | > 100 µM (inactive) | – | 38.6 µM (inactive) | > 100 µM (inactive) | > 100 µM (inactive) | – | > 100 µM (inactive) | > 100 µM (inactive) | > 100 µM (inactive) | > 100 µM (inactive) | > 100 µM (inactive) | > 100 µM (inactive) | –
3 | COC(=O)c1ccc(C)cc1C1CN=NC12Cc1cc(C)c(C)cc1C2=O (configuration not stated) | 54.7 µM (inactive) | 31 µM (inactive) | 48.1 µM | 25.3 µM (inactive) | 46.5 µM (inactive) | 27 µM (inactive) | 40.6 µM (inactive) | 28.6 µM (inactive) | > 100 µM (inactive) | 27.9 µM (inactive) | 36.6 µM (inactive) | 14.9 µM (inactive) | – | 42.4 µM (inactive) | 42.4 µM (inactive) | 46.7 µM (inactive) | – | 34.4 µM (inactive) | 34.2 µM (inactive) | –
4 | Cc1ccc2c(c1)SC1=Nc3sc4cc(C)ccc4[n+]3CN12 | 32.2 µM (inactive) | – | 40.5 µM | 6.82 µM (inactive) | 6.87 µM (inactive) | 10.8 µM (inactive) | 1.98 µM (inactive) | 34.4 µM (inactive) | 2.51 µM (inactive) | 1.81 µM (inactive) | 8.26 µM (inactive) | 1.07 µM (active) | 31.8 µM (inactive) | 7.16 µM (inactive) | 3.24 µM (inactive) | 2.58 µM (inactive) | 3.4 µM (inactive) | 2.68 µM (inactive) | 2.97 µM (inactive) | 2.7 µM (inactive)
5 | Cc1sc2c(c1C)C(=O)c1cccn1-2 | 87.7 µM (inactive) | 56.1 µM (inactive) | > 100 µM | 53.8 µM (inactive) | 37.7 µM (inactive) | 96.4 µM (inactive) | – | > 100 µM (inactive) | > 100 µM (inactive) | 50.7 µM (inactive) | > 100 µM (inactive) | > 100 µM (inactive) | > 100 µM (inactive) | 78.2 µM (inactive) | > 100 µM (inactive) | 61.7 µM (inactive) | 62.7 µM (inactive) | 60.5 µM (inactive) | – | > 100 µM (inactive)
6 | CCOC(=O)C(Cc1cn(C(C)=O)c2ccccc12)P(=O)(OCC)OCC (configuration not stated) | – | – | > 100 µM | > 100 µM (inactive) | > 100 µM (inactive) | > 100 µM (inactive) | > 100 µM (inactive) | > 100 µM (inactive) | > 100 µM (inactive) | > 100 µM (inactive) | – | > 100 µM (inactive) | > 100 µM (inactive) | > 100 µM (inactive) | > 100 µM (inactive) | > 100 µM (inactive) | – | > 100 µM (inactive) | > 100 µM (inactive) | > 100 µM (inactive)
7 | COc1cc2c(cc1OC)C1C3CCCCC3CCN1CC2 (configuration not stated) | 88.5 µM (inactive) | > 100 µM (inactive) | > 100 µM | 88.9 µM (inactive) | > 100 µM (inactive) | > 100 µM (inactive) | > 100 µM (inactive) | > 100 µM (inactive) | > 100 µM (inactive) | – | > 100 µM (inactive) | > 100 µM (inactive) | > 100 µM (inactive) | 62.7 µM (inactive) | > 100 µM (inactive) | > 100 µM (inactive) | > 100 µM (inactive) | 91.2 µM (inactive) | > 100 µM (inactive) | 67 µM (inactive)
8 | O=C1CCc2cc3c(cc21)CC1(Cc2cc4c(cc2C1)CCCC4)C3 | – | 72.3 µM (inactive) | 69 µM | 34.8 µM (inactive) | 30.5 µM (inactive) | 19.4 µM (inactive) | > 100 µM (inactive) | > 100 µM (inactive) | 29 µM (inactive) | > 100 µM (inactive) | > 100 µM (inactive) | 24.6 µM (inactive) | 79.4 µM (inactive) | > 100 µM (inactive) | 45.1 µM (inactive) | 45.9 µM (inactive) | 39.9 µM (inactive) | 88.9 µM (inactive) | 0.0489 µM (active) | 33 µM (inactive)
9 | COC(=O)c1cc2c(c(C(=O)OC)c1)CCC2 | > 100 µM (inactive) | 50.8 µM (inactive) | 63.1 µM | 40.6 µM (inactive) | > 100 µM (inactive) | 82.8 µM (inactive) | > 100 µM (inactive) | 59.8 µM (inactive) | > 100 µM (inactive) | > 100 µM (inactive) | > 100 µM (inactive) | 56.1 µM (inactive) | > 100 µM (inactive) | – | > 100 µM (inactive) | > 100 µM (inactive) | – | > 100 µM (inactive) | 49.9 µM (inactive) | –
10 | Nc1nc(NNc2ccc(Cl)c(Cl)c2)cc(=O)[nH]1 | 21.6 µM (inactive) | 36.4 µM (inactive) | 19.7 µM | 34.4 µM (inactive) | 30.5 µM (inactive) | 33.8 µM (inactive) | 34 µM (inactive) | 47.5 µM (inactive) | 52 µM (inactive) | 32.2 µM (inactive) | 19.7 µM (inactive) | 33.4 µM (inactive) | – | 38.1 µM (inactive) | 72.6 µM (inactive) | 24.2 µM (inactive) | – | 45.7 µM (inactive) | 21.9 µM (inactive) | 16.6 µM (inactive)
11 | O=Cc1cc([N+](=O)[O-])no1 | – | 16.6 µM (inactive) | 36.8 µM | 23 µM (inactive) | 46.6 µM (inactive) | 26.5 µM (inactive) | 33.8 µM (inactive) | 52.4 µM (inactive) | 17.2 µM (inactive) | 16.9 µM (inactive) | – | 20 µM (inactive) | > 100 µM (inactive) | 38.9 µM (inactive) | 92.9 µM (inactive) | 53.3 µM (inactive) | 19.7 µM (inactive) | – | > 100 µM (inactive) | 36 µM (inactive)
12 | Cc1cc(-c2nc3ccccc3s2)ccc1NC(=O)[C@H](C)N | 11.1 µM (inactive) | 7.89 µM (inactive) | 14.1 µM | 14.4 µM (inactive) | 24.3 µM (inactive) | 14.3 µM (inactive) | 16.5 µM (inactive) | 18.3 µM (inactive) | 12.2 µM (inactive) | – | 18.3 µM (inactive) | 13 µM (inactive) | 14.9 µM (inactive) | 14.7 µM (inactive) | 15.1 µM (inactive) | 15 µM (inactive) | 14.8 µM (inactive) | 13.7 µM (inactive) | 15.7 µM (inactive) | 13.2 µM (inactive)
13 | C=CCn1c(-c2ccc([N+](=O)[O-])cc2)cs/c1=N\C(P(=O)(O)O)P(=O)(O)O | > 100 µM (inactive) | > 100 µM (inactive) | > 100 µM | > 100 µM (inactive) | > 100 µM (inactive) | > 100 µM (inactive) | > 100 µM (inactive) | > 100 µM (inactive) | – | > 100 µM (inactive) | > 100 µM (inactive) | > 100 µM (inactive) | > 100 µM (inactive) | – | > 100 µM (inactive) | > 100 µM (inactive) | > 100 µM (inactive) | > 100 µM (inactive) | > 100 µM (inactive) | > 100 µM (inactive)
14 | CC(=O)NNC(=S)N/C=C1/C(=O)Oc2ccccc2C1=O | > 100 µM (inactive) | > 100 µM (inactive) | > 100 µM | > 100 µM (inactive) | > 100 µM (inactive) | > 100 µM (inactive) | > 100 µM (inactive) | > 100 µM (inactive) | > 100 µM (inactive) | > 100 µM (inactive) | > 100 µM (inactive) | > 100 µM (inactive) | – | > 100 µM (inactive) | > 100 µM (inactive) | > 100 µM (inactive) | 51.6 µM (inactive) | > 100 µM (inactive) | – | > 100 µM (inactive)
15 | Fc1cccc2nc(-c3ccccc3)cc(OCc3ccccc3)c12 | > 100 µM (inactive) | > 100 µM (inactive) | > 100 µM | > 100 µM (inactive) | > 100 µM (inactive) | > 100 µM (inactive) | > 100 µM (inactive) | > 100 µM (inactive) | > 100 µM (inactive) | > 100 µM (inactive) | > 100 µM (inactive) | 28.4 µM (inactive) | > 100 µM (inactive) | > 100 µM (inactive) | > 100 µM (inactive) | > 100 µM (inactive) | > 100 µM (inactive) | 83.4 µM (inactive) | – | > 100 µM (inactive)
16 | COc1cc(O)c2c(=O)c(OC)c(-c3ccc(OC)c(O)c3)oc2c1 [AYANIN] | 12.5 µM (inactive) | 23.6 µM (inactive) | 14.3 µM | 79.1 µM (inactive) | 7.85 µM (inactive) | 14.8 µM (inactive) | 69.5 µM (inactive) | > 100 µM (inactive) | 22.1 µM (inactive) | 33.1 µM (inactive) | 33.2 µM (inactive) | 20.4 µM (inactive) | 35.7 µM (inactive) | 61.9 µM (inactive) | > 100 µM (inactive) | > 100 µM (inactive) | 23.5 µM (inactive) | 76.6 µM (inactive) | – | 76.9 µM (inactive)
